Experimental data published in paper PMC8548882, “The Trp-rich Antimicrobial Amphiphiles With Intramolecular Aromatic Interactions for the Treatment of Bacterial Infection” (Frontiers in Microbiology, 2021).
Ends that are not written are not given here.

Legend:
[1] = test system: hRBC, IPEC-J2, HEK 293T, RAW264.7; settings: hRBC, IPEC-J2, HEK 293T, RAW264.7; listed as F5
Method: Besides, the therapeutic index of peptide in the mammalian eukaryotic cell (RAW 264.7, HEK 293T, and IPEC J2) was also calculated to study the biocompatibility of peptides.

[2] = test system: human red blood cells (hRBCs); assay: Hemolytic activity; format: cell-based; settings: hRBC; ratio of MHC to GM
Source text: The hemolytic activity of peptides was reflected by the releasing amount of hemoglobin from erythrocytes lysis induced by peptides ([Dong et al., 2014a]). The informed consent was obtained from the volunteers (3 healthy 25-year-old male volunteers) before the experiment. In brief, the human red blood cells (hRBCs), donated by volunteer, were collected, washed, and resuspended in PBS at pH 7.2. The peptides were serially diluted in PBS at different concentrations in a 96-well cell cultures plate and incubated with 50μl hRBCs for 1h at 37°C. The 0.1% Trition X-100 was selected as the treatment of positive control and the negative control was the hRBCs treated with PBS. After 1h incubation, the supernatant, obtained by centrifuging the plate 1,000g for 5min, was transferred to a brand-new plate for absorbance detection at 570nm. The releasing amount of hemoglobin was converted to the percent hemolysis against to 0.1% Triton X-100 treatment. The lowest concentration caused 5% hemolysis of hRBCs and was defined as the lowest hemolytic concentration of antimicrobial peptide.

S.typhimurium 7731 = format: cell-based, Salmonella enterica serovar typhimurium C77-31
Source text: The tested strains were kindly provided by the laboratory of Veterinary Microbiology and Immunology, the College of Veterinary Medicine, Northeast Agricultural University (gram-negative bacteria, Salmonella enterica serovar typhimurium C77-31, Salmonella typhimurium ATCC 14028, Escherichia coli ATCC 25922, Pseudomonas aeruginosa ATCC 27853 and gram-positive bacteria, Staphylococcus aureus ATCC 29213, Staphylococcus aureus ATCC 43300, Staphylococcus epidermidis ATCC 12228, Staphylococcus aureus ATCC 25923).

P. aeruginosa 27853 = format: cell-based, Pseudomonas aeruginosa ATCC 27853
Method: The famous microtiter dilution, National Committee for Clinical Laboratory Standards, was adopted to measure the antimicrobial ability of the engineering peptides ([Chou et al., 2016]). In brief, the 50μl with serial dilution was incubated with the same volume bacteria (1×10^5CFU/ml in midi-logarithmic phase) in a 96-well plate 18–24h at 37°C. The positive control was the bacteria treated with culture medium and the negative control was merely culture medium. […] The antimicrobial performance of peptides against P. aeruginosa 27853 cells was further studied under the complicated physiological conditions ([Lyu et al., 2016]). […] The serum was also taken into the consideration for the adverse impact on the antimicrobial effect of peptides.

P. aeruginosa ATCC 27853 = assay: Transmission electron microscope; format: cell-based, Pseudomonas aeruginosa ATCC 27853; settings: MIC (1μM)
Source text: (§1) The sample for the test of the Transmission Electron Microscope (TEM) was to follow the same procedure as SEM. After the overnight pre-fixation with 2.5% glutaraldehyde, the bacteria was then post-fixed with 2% osmium tetroxide (sealed ampule, Shanghai, China). Afterward, the samples were dehydrated with ethanol at a series of concentrations (50, 70, 90, and 100%) and substituted the 100% ethanol with 50% ethanol+50% acetone, 100% acetone, 50% acetone+50% epoxy resin, and 100% epoxy resin successively. Finally, the samples were sectioned and stained for observation.

S. aureus ATCC 29213 = assay: Transmission electron microscope; format: cell-based, Staphylococcus aureus ATCC 29213; settings: MIC (2μM)
Source text: as §1

[3] = test system: P. aeruginosa ATCC 27853 cells; assay: Cytoplasmic membrane depolarization, diSC3-5; format: cell-based, Pseudomonas aeruginosa ATCC 27853; settings: 1/2 MIC, 0s to 1,020s
Method: The cytoplasmic membrane depolarization of peptides was analyzed with membrane potential-sensitive dye DISC3-5 ([Ma et al., 2011]). First, 0.4μM DISC3-5 (Sigma-Aldrich, Shanghai, China) was incubated with the P. aeruginosa ATCC 27853 cells (OD600=0.05) suspended in 5mM HEPES buffer supplied with 20mM glucose for 1h. Then 100mMK^+ was introduced into the mixture for the reason of keeping K^+ concentration equilibration of bacterial cytoplasmic and extracellular conditions. Afterward, the peptides were reacted with the bacterial cells and the fluorescence value was tracked over time to plot the fluorescence curve (excitation λ=622nm, emission λ=670nm).

RAW 264.7 cells = format: cell-based, murine; settings: RAW264.7; ratio of IC50 to GM
Method: The MTT (3-[4,5 dimethylthiozol-2-yl]-2,5-diphenylterazoliumbromide) dye was selected to analyze the cytotoxicity of peptides against the murine macrophage cell RAW 264.7 (National Collection of Authenticated Cell Cultures, Shanghai, China), human embryonic kidneys (HK293T), and the porcine intestinal epithelial cells (IPEC-J2) as in our previously study ([Li et al., 2020]). In short, the cells (10^4 cells/well) were seeded into 96-well plates and were cultivated overnight. Then the peptides with different final concentration (2μM, 4μM, 8μM, 16μM, 32μM, 64μM, and 128μM) were introduced into the plate and challenged with cells for 24h. After overnight incubation, the 50μl MTT (0.5mg/ml) was added into the cell cultures for 4h. Then the plate was centrifuged to discard the supernatants and obtain the formazan crystals. The DMSO (dimethyl sulfoxide) was employed as a solvent to dissolve the formazan crystals on the bottom of the plate and the optical density was read at 492nm with a microplate reader.

VKKWVKKWVKKWVKKW-NH2 [VW5]
GMTI, geometric mean of TI of various cell lines [1]: > 1218.17 | Therapeutic index (TI) [2]: > 76.19 | MIC (S.typhimurium 7731): 1 µM | change of MIC compared to the control (P. aeruginosa 27853; 12.5% serum): did not change | increase of MIC compared to the control (P. aeruginosa 27853; 50% serum): fourfold | ultrastructure (TEM) (P. aeruginosa ATCC 27853): cellular contents of bacterial cells leaked | ultrastructure (TEM) (S. aureus ATCC 29213): diffused around the shrunken cells | cytoplasmic membrane depolarization, diSC3-5 fluorescence over time [3]: dose-dependent effect | Therapeutic index (TI) (RAW 264.7 cells): 1860.86
